The results in this text go back to the SangsterLogP compilation.

Structures are written as SMILES.

`CN(C)/N=N/c1cccc(C(N)=O)c1` returned a logP of 1.3.

Regarding `CCCN(C)N=Nc1ccc(C(=O)O)cc1`, the logP worked out at 0.46.

Turning to `CN(CC(F)(F)F)N=Nc1ccc(C(N)=O)cc1`, the logP came to 1.86.

In turn, `CCCCCN(C)N=Nc1ccc(S(=O)(=O)Nc2ccccn2)cc1` came in with a logP of 2.16.

With `CCCCN(C)/N=N/c1ccc(C(N)=O)cc1`, the logP came to 2.68.

As for `CCN(C)/N=N/c1ccccc1C(N)=O`, the logP is 2.59.

In turn, `COC(=O)c1ccccc1/N=N/N(C)C` came in with a logP of 2.51.

Compound `CN(Cc1ccccc1)N=Nc1ccc(C(N)=O)cc1` had a logP of 2.77.

Turning to `CCOC(=O)c1ccc(/N=N/N(C)C)cc1`, the logP came out at 3.66.

On to `CN(C)N=Nc1ccc(S(=O)(=O)CCO)cc1`, for which the log partition coefficient (logP) was 1.15.

For `CN(C)/N=N/c1cccc(C(=O)O)c1`, the logP was -0.38.

With `COC(=O)c1cccc(/N=N/N(C)C)c1`, the logP amounted to 3.12.

On to `CCCCN(C)/N=N/c1ccccc1C(N)=O`, for which the logP is 3.52.

On to `CCCCCN(C)N=Nc1ccc(S(=O)(=O)Nc2nccc(C)n2)cc1`, for which the logP was found to be 2.34.

`CCCC(C)N(C)N=Nc1ccc(C(=O)O)cc1` (stereo not given) had a logP of 1.35.

As for `CC(=O)N(C)N=Nc1ccc(C(N)=O)cc1`, the logP was 1.37.

On to `CCCCCN(C)N=Nc1ccc(C(=O)O)cc1`, for which the logP came out at 1.46.

As to `CCN(CC)N=Nc1ccccc1C(N)=O`, the logP turned out to be 2.96.

Turning to `CCN(CC)/N=N/c1ccc(C(N)=O)cc1`, the logP is 2.26.

`CN(C)/N=N/c1ccc([N+](=O)[O-])cc1` yielded a logP of 3.25.

Take `CN(C)/N=N/c1ccccc1C(=O)O`: the logP was -0.28.

The compound `CCN(CC)N=Nc1cc([N+](=O)[O-])cc([N+](=O)[O-])c1` registered a logP of 4.69.

In turn, `CCCCCN(C)N=Nc1ccc(C(N)=O)cc1` displayed a logP of 3.18.

For the compound `CN(C)N=Nc1ccc(S(=O)(=O)Nc2ccno2)cc1`, the logP came out at 0.42.

Compound `CN(C)/N=N/c1ccc(S(N)(=O)=O)cc1` came in with a logP of 0.85.

`CCN(C)/N=N/c1ccc(C(N)=O)cc1` came in with a logP of 1.69.

`C=CCN(CC=C)N=Nc1ccccc1C(=O)O` had a logP of 0.62.

Turning to `CNN=Nc1ccc(C(N)=O)cc1`, the logP was determined as 0.48.

`CN(C)/N=N/c1ccc(S(C)(=O)=O)cc1` returned a log partition coefficient (logP) of 1.59.

With `CCOC(=O)c1ccc(N=NN(C)CCO)cc1`, the logP came to 2.66.

As for `CCN(CC)N=Nc1ccccc1C(=O)O`, the logP is 1.49.

For the compound `CCNN=Nc1ccc(C(N)=O)cc1`, the logP was 1.19.

Turning to `COC(=O)c1ccc(/N=N/N(C)C)cc1`, the logP amounted to 3.22.

With `CC(C)N(N=Nc1ccc(C(N)=O)cc1)C(C)C`, the logP was determined as 3.

Turning to `COc1ccc(/N=N/N(C)C)cc1`, the logP was found to be 2.99.

`CCN(C)N=Nc1ccccc1C(=O)O` yielded a lipophilicity (logP) of 0.11.

In the case of `CCCN(C)N=Nc1ccc(C(N)=O)cc1`, the logP turned out to be 2.17.

With `CN(C)/N=N/c1ccc(C(F)(F)F)cc1`, the logP stood at 4.

In turn, `CCCCN(C)N=Nc1ccc(C(=O)O)cc1` had a logP of 0.96.

As for `CCN(CC)N=Nc1ccc(S(C)(=O)=O)cc1`, the logP amounted to 2.6.

The term logP denotes the decadic logarithm of the partition coefficient of the neutral form, usually between octanol and water. Low readings indicate lower lipophilicity, high ones higher lipophilicity.
